Measurements: publication PMC4457826 (PLoS Pathogens, 2015)
No end group written: not given here.

Tests used:
[1] = test system: FL-USP7; assay: GST pull-down, USP7-FL; assay type: binding, human; conditions: GST fusions 250 μg + USP7 250 μg, 50 mM Tris pH 8.0, 100 mM NaCl, 5 mM DTT, 5% glycerol, overnight 4°C; Coomassie stained gel; Fig 1A/1C; symbols not defined
Method: The USP7 binding region is found within ICP0 residues 594–633 and mutagenesis studies have shown that K620 is essential for the interaction. In order to facilitate crystallization and structure determination, we set out to identify a shorter peptide that is capable of binding to USP7. To this end, a series of overlapping GST-ICP0 fusions (591–605, 595–609, 599–613, 603–617, 607–621, 611–625, 615–629, 619–633) were prepared (see Fig 1A for sequence details) and used in GST pull-down assays. […] Overall, our GST pull-down assays identified ICP0 residues between 619 and 629 as important mediators of USP7 binding in agreement with a previous study.
Next we determined which region of USP7-CTD interacted with the ICP0 615–629 peptide. FL-USP7, USP7-CTD as well as Ubl12, Ubl123, Ubl345 and Ubl45 (Fig 1B) were used as prey in GST pull-down assays using GST-ICP0 615–629. FL-USP7 and USP7-CTD were used as positive controls while GST alone and USP7-NTD were used as negative controls.
(§1) The ICP0, GMPS and UHRF1 WT and mutant peptides were cloned into pGEX-2TK and expressed in E. coli BL21(DE3). GST-ICP0 594–775 was obtained from Roger Everett. The GST-ICP0 or GST-GMPS or GST-UHRF1 or GST-ICP0 594–775 cell pellets from 500 ml of LB broth were re-suspended with PBS and lysed using sonication. The cleared lysates were applied to 500 μl of equilibrated glutathione-sepharose beads and incubated with rocking for 60 min at 4°C. Unbound proteins were removed by washing with PBS. Bound proteins were eluted with 50 mM Tris pH 8.0 and 100 mM NaCL containing 30 mM reduced glutathione. Equal amounts (250 μg) of the various USP7 proteins were incubated with 250 μg of the GST-ICP0 or GST-GMPS or GST-UHRF1 or GST-ICP0 594–775 peptides in 50 mM Tris pH 8.0, 100 mM NaCl, 5 mM DTT, 5% glycerol, 0.1 mM Benzamidine and 0.05 mM PMSF, applied to equilibrated glutathione-sepharose beads and incubated overnight with rocking at 4°C. After extensive washing, bound proteins were eluted with 50 mM Tris pH 8.0 and 100 mM NaCl containing 30 mM reduced glutathione.

[2] = target: T1, USP7-CTD (Homo sapiens, UniProt Q93009); assay: GST pull-down, USP7-CTD; assay type: binding; conditions: for Interaction with USP7-CTD (overlapping GST-ICP0 peptides): GST fusions 250 μg + USP7-CTD 250 μg, 50 mM Tris pH 8.0, 100 mM NaCl, 5 mM DTT, 5% glycerol, overnight 4°C, Coomassie stained gel, Fig 1A/1D, symbols not defined
T1 construct: USP7-CTD (535–1102); His tag (inferred from nickel-NTA purification; vector p15TV-L); made in house; host or cells: E. coli BL21(DE3)mgk
T1 sequence (Q93009 535-1102): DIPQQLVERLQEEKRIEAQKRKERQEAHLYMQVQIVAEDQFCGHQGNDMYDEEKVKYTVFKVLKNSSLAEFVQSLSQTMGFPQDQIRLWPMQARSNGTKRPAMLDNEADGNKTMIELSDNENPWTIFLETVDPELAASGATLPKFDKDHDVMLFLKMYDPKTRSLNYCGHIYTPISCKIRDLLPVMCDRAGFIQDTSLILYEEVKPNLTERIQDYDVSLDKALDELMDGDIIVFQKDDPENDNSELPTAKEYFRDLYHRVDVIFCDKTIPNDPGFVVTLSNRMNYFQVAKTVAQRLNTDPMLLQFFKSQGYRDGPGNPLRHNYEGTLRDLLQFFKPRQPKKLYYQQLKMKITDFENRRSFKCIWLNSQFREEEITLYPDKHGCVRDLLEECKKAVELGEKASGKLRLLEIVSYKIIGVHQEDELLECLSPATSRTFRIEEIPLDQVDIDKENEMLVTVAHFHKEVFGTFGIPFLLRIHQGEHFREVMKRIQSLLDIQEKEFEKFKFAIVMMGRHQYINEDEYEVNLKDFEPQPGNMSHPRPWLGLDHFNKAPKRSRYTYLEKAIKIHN
Method: (§2) Fragments representing USP7-CTD Ubl domains were prepared using ligation independent cloning with In-Fusion (Clontech) in p15TV-L. The boundaries of the Ubl domain constructs are Ubl12 (535–776), Ubl123 (535–889), Ubl345 (776–1102), Ubl45 (886–1102) and USP7-CTD (535–1102). Plasmids expressing USP7-NTD, USP7, and myc-USP7 WT (pCANmycUSP7) were described previously. USP7 mutants E759A, D762A, D764A and D762A/D764A in Ubl123 were synthesized (Genscript) and inserted into the pET15b plasmid. USP7 mutants E759A, D762A, D764A, D762A/D764A and D762R/D764R in USP7-CTD were prepared by ACGT Corporation. The D762R/D764R mutant was then sub-cloned into wild-type pCANmycUSP7 for co-IP assays. The mammalian ICP0 expression construct pCI-110 ICP0 was obtained from Roger Everett.
as §1

[3] = test system: USP7-CTD mutant D762A; assay: GST pull-down, USP7-CTD D762A; assay type: binding, human
Method: as §2, §1

[4] = test system: USP7-CTD mutant D764A; assay: GST pull-down, USP7-CTD D764A; assay type: binding, human
Method: as §2
The ICP0, GMPS and UHRF1 WT and mutant peptides were cloned into pGEX-2TK and expressed in E. coli BL21(DE3). GST-ICP0 594–775 was obtained from Roger Everett. The GST-ICP0 or GST-GMPS or GST-UHRF1 or GST-ICP0 594–775 cell pellets from 500 ml of LB broth were re-suspended with PBS and lysed using sonication. The cleared lysates were applied to 500 μl of equilibrated glutathione-sepharose beads and incubated with rocking for 60 min at 4°C. Unbound proteins were removed by washing with PBS. Bound proteins were eluted with 50 mM Tris pH 8.0 and 100 mM NaCL containing 30 mM reduced glutathione. […]

[5] = test system: USP7-CTD mutant D762A/D764A; assay: GST pull-down, USP7-CTD D762A/D764A; assay type: binding, human
Method: as §2, §1

[6] = test system: myc-tagged WT USP7; assay: Co-immunoprecipitation with myc-tagged WT USP7 from 293T cells; assay type: cell-based, human; conditions: anti-myc IP, endogenous protein, Western blot, Fig 5B
Method: (§3) 293T cells were grown in Dulbecco’s modified Eagle’s medium (DMEM) (Gibco) with 10% fetal calf serum. 293T cells at 70% confluence in a 10-cm-diameter dish were transfected with 10 μg pCANmycUSP7 expressing WT USP7 or D762R/D764R (MRGR) USP7 or with pcDNA3.1 (negative control), in each case using 20 μl PolyJet (SignaGen Laboratories) transfection reagent. Cells were transferred to a 15-cm-diameter dish 24 h post-transfection and harvested 48 h post-transfection. For experiments on USP7-ICP0 interactions, 293T cells were co-transfected with 1 μg pCANmycUSP7 expressing WT or D762R/D764R (MRGR) USP7 and either 1 μg pCI-110 ICP0 or 1 μg pcDNA3.1. For controls lacking USP7, 1 μg pCI-110 ICP0 was co-transfected with 1 μg pcDNA3.1. In each case 4 μl PolyJet (SignaGen Laboratories) transfection reagent was used.
Protein samples were subjected to SDS-PAGE and transferred to nitrocellulose. […]
293T cells transfected as described above were washed in phosphate-buffered saline (PBS) and lysed on ice for 45 min in a 4x volume of RIPA buffer (50 mM Tris-HCl [pH 8], 150 mM NaCl, 0.1% sodium deoxycholate, 0.5% NP-40) with complete protease inhibitors (Sigma P8340), followed by centrifugation. […] Immunoprecipitated proteins were separated by SDS-PAGE and analyzed by Western blotting, as described above.

[7] = test system: myc-tagged D762R/D764R (MRGR) USP7; assay: Co-immunoprecipitation with myc-tagged D762R/D764R (MRGR) USP7 from 293T cells; assay type: cell-based, human; conditions: anti-myc IP; for binding relative to recovery with WT USP7: D762R/D764R mutant, endogenous protein, multiple experiments, Fig 5B; for recovery with D762R/D764R USP7 (co-IP), in words: Western blot, Fig 5
Method: as §3
Protein samples were subjected to SDS-PAGE and transferred to nitrocellulose. Membranes were blocked in 5% skim milk in Tris-buffered saline with 1% Tween (TBS-T) and then incubated with antibodies against ICP0 (H1A027 from Virusys Corporation; 1:5000 dilution), myc (sc-40 from Santa Cruz Biotechnology; 1:5000 dilution), NP95/UHRF1 (A301-470A from Bethyl Laboratories; 1:1000 dilution), GMPS (rabbit serum raised against full-length GMPS [17]; 1:5000 dilution) and actin (MA5-15739 from Pierce; 1:20,000 dilution). After washing, blots were probed with goat anti-mouse or goat anti-rabbit peroxidase (Santa Cruz Biotechnology; 1:5000 dilution) and developed using chemiluminescence reagents (Santa Cruz biotechnology).
293T cells transfected as described above were washed in phosphate-buffered saline (PBS) and lysed on ice for 45 min in a 4x volume of RIPA buffer (50 mM Tris-HCl [pH 8], 150 mM NaCl, 0.1% sodium deoxycholate, 0.5% NP-40) with complete protease inhibitors (Sigma P8340), followed by centrifugation. 1 mg of each clarified lysate was incubated with 1 μg of anti-myc antibody for 1h, followed by incubation with 30 μl of A/G PLUS agarose resin (Santa Cruz Biotechnology) for 2 h at 4°C with end-over-end rotation. The resin was harvested by centrifugation, washed in RIPA buffer, and then boiled in SDS loading buffer. Immunoprecipitated proteins were separated by SDS-PAGE and analyzed by Western blotting, as described above.

[8] = target: T2, USP7 Ubl123 (Homo sapiens, UniProt Q93009); assay: GST pull-down, Ubl123; assay type: binding; conditions: mutations within ICP0 615–629, Fig 3D
T2 construct: Ubl123 (535–889); His tag (inferred from nickel-NTA purification; vector p15TV-L); made in house; host or cells: E. coli BL21(DE3)mgk
T2 sequence (Q93009 535-889): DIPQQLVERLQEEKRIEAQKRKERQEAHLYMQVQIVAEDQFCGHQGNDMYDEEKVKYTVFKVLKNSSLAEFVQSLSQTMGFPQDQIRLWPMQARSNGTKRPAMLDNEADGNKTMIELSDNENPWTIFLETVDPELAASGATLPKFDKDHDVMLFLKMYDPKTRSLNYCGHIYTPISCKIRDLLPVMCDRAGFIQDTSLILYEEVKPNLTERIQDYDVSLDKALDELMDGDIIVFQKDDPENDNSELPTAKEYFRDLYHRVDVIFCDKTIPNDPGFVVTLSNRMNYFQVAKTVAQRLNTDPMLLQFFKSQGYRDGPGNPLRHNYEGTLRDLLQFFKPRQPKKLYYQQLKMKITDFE
Method: as §2, §1

AASGPRGPRKCARKT [ICP0 611–625, GST-ICP0 fusion of ICP0 residues 611–625]
Interaction with USP7-FL (overlapping GST-ICP0 peptides) [1]: interacted with FL-USP7 and USP7-CTD but not to the same extent
Interaction with USP7-CTD (overlapping GST-ICP0 peptides) [2]: interacted with FL-USP7 and USP7-CTD but not to the same extent

DRTPRKRISKTLN [GST-GMPS peptide, GST fusion of GMPS residues 316–328]
Binding to WT USP7-CTD ([2]; GST pull-down, GST-ICP0 594–775, GST-GMPS and GST-UHRF1 peptides and mutants, Fig 3H, 4C-F): interacted with USP7-CTD
Binding to USP7-CTD mutant D762A [3]: disrupted binding
Binding to USP7-CTD mutant D764A [4]: disrupted binding
Binding to USP7-CTD mutant D762A/D764A [5]: disrupted binding

GMPS: endogenous GMP synthase in 293T cells
recovery with WT USP7 (co-IP) [6]: efficiently recovered
binding relative to recovery with WT USP7 [7]: 35% (± 16%)
recovery with D762R/D764R USP7 (co-IP), in words [7]: significantly decreased

K620A (PRGPRACARKTRHAE; also: GST fusion partner not in chain)
Binding of mutant GST-ICP0 peptides to Ubl123 [8]: lacked detectable binding

K620A/K624A (PRGPRACARATRHAE; also: GST fusion partner not in chain)
Binding of mutant GST-ICP0 peptides to Ubl123 [8]: lacked detectable binding

K624A (PRGPRKCARATRHAE; also: GST fusion partner not in chain)
Binding of mutant GST-ICP0 peptides to Ubl123 [8]: lacked detectable binding

R619A/K620A (PRGPAACARKTRHAE; also: GST fusion partner not in chain)
Binding of mutant GST-ICP0 peptides to Ubl123 [8]: lacked detectable binding

R623A/K624A (PRGPRKCAAATRHAE; also: GST fusion partner not in chain)
Binding of mutant GST-ICP0 peptides to Ubl123 [8]: lacked detectable binding

RKCARKTRHAETSGA [ICP0 619–633, GST-ICP0 fusion of ICP0 residues 619–633]
Interaction with USP7-FL (overlapping GST-ICP0 peptides) [1]: strongest interaction
Interaction with USP7-CTD (overlapping GST-ICP0 peptides) [2]: strongest interaction

RRKK
Binding of mutant GST-ICP0 peptides to Ubl123 [8]: lacked detectable binding

UHRF1: endogenous epigenetic regulator UHRF1 in 293T cells, an E3 ligase
recovery with WT USP7 (co-IP) [6]: efficiently recovered
binding relative to recovery with WT USP7 [7]: 21% (± 6%)
recovery with D762R/D764R USP7 (co-IP), in words [7]: significantly decreased
